Assay results published in US20110039763A1, “TARGETED ANTIMICROBIAL MOIETIES” (C3 JIAN, INC., priority 2009, published 2011).
“Also recorded” adds a separate entry of the source.

Experiments:
[1] = system: microorganisms; test: Targeting peptide binding to target microorganisms (Tables 3, 10, 12); conditions: microorganism(s) the targeting peptide binds; binding in aqueous buffers varied with peptide solubility, preferably 1x PBS
[2] = system: microorganisms; test: Morphology, biofilm and growth disrupting peptides (Table 5); type: cell-based; set-up: key: A: Peptide aggregates; B: Less hyphal formation; Clumps; Diffuse clumps and small polyps; F: Diffuse growth; H: Thin; I: Growth inhibition; Microcolony formation; Rippled; Small polyps; Thick; W: Halo formation on top, microlonies on bottom
Source text: In certain embodiments peptides that induce alterations in phenotype or other biological activities can also be used as antimicrobial effector moieties.

[3] = system: microorganisms; test: Peptide activities: targeting/binding, antimicrobial, growth or phenotype altering (Tables 7, 8); type: cell-based; conditions: peptides having multiple activities

Substance | Target(s) [1] | Organism, effect ([2]; S. pneumoniae) | Activities [3] | Organism, effect ([2]; C. albicans) | Organism, effect ([2]; E. faecalis) | Organism, effect ([2]; MRSA) | Organism, effect ([2]; S. epidermidis) | Organism, effect ([2]; C. jeikeium) | Organism, effect ([2]; B. subtilis)
PF-626: peptide having multiple activities (chain 1 KYDFDDFEPEEA; chain 2 KYDFDDFEPEEA; Peptide with targeting and/or antimicrobial activity) | S. epidermidis and M. luteus and E. coli and C. albicans and MRSA and S. pneumoniae and E. faecalis and C. jeikeium | S. pneumoniae (H) | G B | – | – | – | – | – | –
PF-627: peptide having multiple activities (chain 1 INDLLSYFTLHEK; chain 2 INDLLSYFTLHEK; Peptide with targeting and/or antimicrobial activity) | S. epidermidis and P. aeruginosa and MRSA and S. pneumoniae and E. faecalis and C. jeikeium | S. pneumoniae (I) | G B | C. albicans (B) | E. faecalis (H) | MRSA (R) | S. epidermidis (H) | – | –
PF-629: peptide having multiple activities (chain 1 GLAAIATVFALY; chain 2 GLAAIATVFALY; Peptide with targeting and/or antimicrobial activity) | S. epidermidis and P. aeruginosa and C. albicans and MRSA and S. pneumoniae and E. faecalis and C. jeikeium | S. pneumoniae (M) | G B | – | E. faecalis (R) | MRSA (D) | S. epidermidis (C) | C. jeikeium (R) | –
PF-631: peptide having multiple activities (chain 1 LIIYFSKTGNTARATRQI; chain 2 LIIYFSKTGNTARATRQI; Peptide with targeting and/or antimicrobial activity) | S. epidermidis and P. aeruginosa and C. albicans and MRSA and S. pneumoniae and E. faecalis and C. jeikeium | S. pneumoniae (I) | G B | – | E. faecalis (H) | – | – | – | –
PF-632: peptide having multiple activities (chain 1 TTIQGVASLEKHGFRYTIIYPTRI; chain 2 TTIQGVASLEKHGFRYTIIYPTRI; Peptide with targeting and/or antimicrobial activity) | S. epidermidis and P. aeruginosa and C. albicans and MRSA and S. pneumoniae and E. faecalis and C. jeikeium | S. pneumoniae (M) | G B | C. albicans (B) | E. faecalis (D) | MRSA (D) | S. epidermidis (D) | C. jeikeium (D) | B. subtilis (H)
PF-636: peptide having multiple activities (chain 1 LVRLA; chain 2 LVRLA; Peptide with targeting and/or antimicrobial activity) | S. epidermidis and C. albicans and MRSA and S. pneumoniae and E. faecalis | S. pneumoniae (H) | G B | C. albicans (B) | E. faecalis (H) | – | – | – | B. subtilis (H)
PF-637: peptide having multiple activities (chain 1 SRIKQDARSVRKYDRIGIFFYSFKSA; chain 2 SRIKQDARSVRKYDRIGIFFYSFKSA; Peptide with targeting and/or antimicrobial activity) | S. epidermidis and P. aeruginosa and C. albicans and MRSA and S. pneumoniae and E. faecalis and C. jeikeium | S. pneumoniae (M) | G B | – | E. faecalis (D) | MRSA (M) | S. epidermidis (M) | C. jeikeium (D) | –
PF-638: peptide having multiple activities (chain 1 TFILPK; chain 2 TFILPK; Peptide with targeting and/or antimicrobial activity) | S. epidermidis and C. albicans and MRSA and C. jeikeium | S. pneumoniae (I) | G B | – | E. faecalis (H) | MRSA (M) | S. epidermidis (R) | – | –
PF-639: peptide having multiple activities (chain 1 QATQIKSWIDRLLVSED; chain 2 QATQIKSWIDRLLVSED; Peptide with targeting and/or antimicrobial activity) | S. pneumoniae; also recorded: C. jeikeium | S. pneumoniae (I) | G B | C. albicans (B) | E. faecalis (H) | MRSA (R) | – | – | –
PF-640: peptide having multiple activities (chain 1 MGDINRNF; chain 2 MGDINRNF; Peptide with targeting and/or antimicrobial activity) | C. albicans | S. pneumoniae (I) | G B | C. albicans (B) | E. faecalis (H) | – | – | – | –
PF-642: peptide having multiple activities (chain 1 FTTPMIGIPAGLLGGSYYLKRREEKGK; chain 2 FTTPMIGIPAGLLGGSYYLKRREEKGK; Peptide with targeting and/or antimicrobial activity) | M. luteus and MRSA and C. jeikeium | – | G B | – | – | MRSA (M) | – | – | –
PF-655: peptide having multiple activities (chain 1 DAPCFDDQFGDLKCQMC; chain 2 DAPCFDDQFGDLKCQMC; Peptide with targeting and/or antimicrobial activity) | M. smegmatis | S. pneumoniae (H) | G B | – | – | MRSA (M) | S. epidermidis (R) | – | B. subtilis (H)
PF-664: peptide having multiple activities (chain 1 DQLCVEYPARVSTG; chain 2 DQLCVEYPARVSTG; Peptide with targeting and/or antimicrobial activity) | M. smegmatis | S. pneumoniae (M) | G B | – | E. faecalis (R) | MRSA (R) | S. epidermidis (M) | – | –
PF-681: peptide having multiple activities (TALTTVGVSGARLITYCVGVEDI; Peptide with targeting and/or antimicrobial activity) | M. smegmatis | S. pneumoniae (M) | G B | – | E. faecalis (R) | MRSA (M) | S. epidermidis (M) | C. jeikeium (R) | –
PF-686: peptide having multiple activities (LAVLMGYIGYRGWSGKRHINRQ; Peptide with targeting and/or antimicrobial activity) | M. smegmatis | S. pneumoniae (A) | G B | C. albicans (B) | E. faecalis (R) | MRSA (M) | S. epidermidis (H) | – | B. subtilis (I)
